For this experiment, the system named is moderate-to-severe post-surgical pain (post-surgical dental pain). The experiment can be described thus: Randomized, double-blind, single-dose, placebo- and comparator-controlled study of pain relief by administered dose (bolus IV). The class given is in vivo, human. As to conditions: 30 mg single bolus IV dose (comparator). The procedure: A 336-patient, seven treatment arm, randomized, double-blind, single-dose, and placebo- and comparator-controlled, parallel-group study was conducted. Patients were randomly assigned to receive a single dose of either diclofenac sodium solubilized with hydroxypropyl-beta-cyclodextrin (hereinafter “DIC”), ketorolac tromethamine, or placebo.
Bolus IV injectable 2 ml solutions were prepared by solubilizing diclofenac sodium with hydroxypropyl-beta-cyclodextrin. […]
Pain was assessed by each patient at Baseline (0 hour: Visual Analog Scale (VAS) and categorical pain intensity only), at 5, 15, 30 and 45 minutes, and at 1, 1.5, 2, 3, 4, 5, 6, 7, 8, 10, 12 and 24 hours after administration of study medication and immediately prior to the first dose of rescue medication. At each post-dose time period, levels of pain intensity (categorical and VAS) and pain relief (categorical and VAS) was assessed by each patient. […]
The presence of a dose-response was tested with a step-down testing procedure. Total pain relief (TOTPAR), peak pain relief, pain intensity difference (SPID), summed peak reduction in pain intensity difference (SPRID), and patient global evaluation was analyzed with analysis of variance (ANOVA) with treatment, center, and baseline categorical pain intensity as factors. […] A 95% confidence interval for each estimated median time to event was calculated. […]

These results are taken from patent US8946292B2, “Formulations of low dose diclofenac and beta-cyclodextrin” (Javelin Pharmaceuticals, Inc., priority 2006, dated 2015).

As for `O=C(c1ccccc1)c1ccc2n1CCC2C(=O)O` (centres unmarked) [ketorolac, ketorolac tromethamine], the “% Maximum Effect (TOTPAR)” value is recorded as 100%. In addition, under “patients, 0-6 hours”, the “TOTPAR (Sum of Pain Relief VAS 0-100 mm ratings 0-6 hours)” value is 400.3.
